According to patent US20220226480A1, “LIPID CONJUGATE PREPARED FROM SCAFFOLD MOIETY” (Integrated Nanotherapeutics Inc., priority 2019, published 2022):

What was measured:
J774.2 = assay: Pro-inflammatory cytokine expression in LPS-stimulated macrophage cell line J774.2 (qRT-PCR); assay type: cell-based; details: LNP formulation at doses equivalent to 1, 3 or 10 μM dexamethasone, 24 hours, 10 ng/mL LPS, versus control LNP
Description: (§1) The graph depicts the expression of the cytokines IL-1β (top), TNFα (middle) and IL-6 (bottom) after 24 hours of incubation of the cells with the above components at doses equivalent to 1, 3 or 10 μM of dexamethasone, followed by stimulation by 10 ng/mL lipopolysaccharide (LPS) overnight. Cytokine levels were measured by qRT-PCR and data was normalized to cells treated with control LNP without drug-lipid conjugates.
(§2) Cultured macrophage cell lines J774.2 (FIG. 8) and Raw264.7 (FIG. 9A) were incubated with immunostimulant LPS and LNP with or without ricinoleyl-dexamethasone conjugate INT-D034/INT-D035. After 24 hours, cells were harvested and were analyzed for expression of pro-Inflammatory cytokines IL1β, TNFα and IL-6. RNA was isolated from the cells and levels of pro-inflammatory cytokines ILIβ, TNFα and IL6 were determined by qRT-PCR.

Raw264.7 = assay: Pro-inflammatory cytokine expression in LPS-stimulated Raw264.7 cells (qRT-PCR); assay type: cell-based; details: LNP formulation at doses equivalent to 1, 3 or 10 μM dexamethasone, 24 hours, 10 ng/mL LPS, versus control LNP
Description: as §1, with “IL-10” for “IL-1β”, “LPS” for “lipopolysaccharide (LPS)”
as §1, with “IL-10” for “IL-1β (top), TNFα (middle) and IL-6 (bottom)”, “1” for “1, 3”, “LPS” for “lipopolysaccharide (LPS)”
as §2

[1] = Particle size and polydispersity of LNP containing pro-drug (dynamic light scattering); assay type: physicochemical; design: Size of LNP: unit not given here
Description: (§3) LNPs were prepared by dissolving 1,2-Distearoyl-sn-glycero-3-phosphocholine (DSPC) or 1,2-dimyristoyl-sn-glycero-3-phosphocholine (DMPC), cholesterol and 1,2-Distearoyl-sn-glycero-3-phosphoethanolamine-Poly(ethylene glycol) (PEG-DSPE) in ethanol. DSPC, DMPC and PEG-DSPE were purchased from Avanti Polar Lipids (Alabaster, Ala.), and cholesterol was obtained from Sigma (St Louis, Mo.).
(§4) Drug-lipid-conjugates INT-D034, INT-D035, INT-D045, INT-D046, INT-D047, INT-D048, INT-D049, INT-D050, INT-D051, INT-D053, INT-D060, INT-D061, INT-D062, INT-D063, INT-D083, INT-D085, INT-D086, INT-D088 and INT-D089 (see FIG. 3 and Example 7 for structures) were dissolved in isopropanol or THF. LNP were prepared by rapidly mixing DSPC or DMPC, cholesterol, drug-lipid conjugate, and PEG-DSPE (in molar ratio of 49/40/10/1) with phosphate-buffered saline (PBS) using a cross-junction mixer. Formulations were dialyzed against PBS to remove residual ethanol. In formulation$ with more than 10 mol % drug-lipid conjugates, the amount of phospholipid or cholesterol was reduced accordingly.
(§5) The physiochemical properties of the LNPs prepared as described above were subsequently characterized. Particle size was determined by dynamic light scattering using a Malvern Zetasizer Nano ZS (Malvern, UK) following buffer exchange into phosphate-buffered saline. Number-weighted size and distribution date was used. Lipid concentrations were determined by measuring total cholesterol using the Cholesterol E enzymatic assay kit from Wako Chemicals USA (Richmond, Va.). The morphology of LNP formulations containing LD-DEX was analyzed by cryogenic-transmission electron microscopy (cryoTEM).

CD4+ T cells = assay: Mixed lymphocyte reaction (MLR) assay, BMDCs with allogeneic CD4+ T cells; assay type: cell-based, mice; details: LNP containing 10-99 mol % conjugate; BMDCs treated 48 hours, LPS 24 hours; 5:1 or 10:1 T-to-BMDC ratio; 3 days; flow cytometry
Description: Bone marrow derived dendritic cells (BMDCs) from C57Bl/6 male mice were first treated with LNP containing various mol % of the dexamethasone or calcitriol conjugates for 48 hours and then activated by incubation with LIPS for 24 hours. They were then harvested and mixed with CD4+ T cells isolated from Balb/cJ male mice (Jackson Laboratories) at 5:1 or 10:1 T-to-BMDC ratio.
Dexamethasone and calcitriol can tolerize antigen presenting cells (APCs). […] Bone marrow derived dendritic cells (BMDCs) from C57BI/6 male mice (Charles River) were first treated with LNP containing various mol % of dexamethasone or calcitriol conjugates for 48 hours and then activated by incubation with LPS for 24 hours. They were then harvested and mixed with CD4+ T cells isolated from Balb/cl male mice (Jackson Laboratories) at 5:1 or 10:1 T-to-BMDC ratio. The levels of T cells proliferation after 3 days were quantified using flow cytometry.

[2] = Encapsulation efficiency / incorporation of pro-drug in LNP; assay type: physicochemical
Description: as §3, §4, §5

[3] = LNP containing 10 mol % conjugate, primary PC-lipid DMPC
[4] = LNP formulations containing pro-drugs (10 mol %, FIG. 6A)
[5] = LNP, pro-drug concentration 10 %
[6] = LNP, pro-drug concentration 20 %
[7] = LNP, pro-drug concentration 30 %
[8] = LNP, pro-drug concentration 40 %
[9] = LNP, pro-drug concentration 50 %
[10] = LNP, pro-drug concentration 60 %
[11] = LNP, pro-drug concentration 80 %
[12] = LNP, pro-drug concentration 95 %
[13] = LNP, pro-drug concentration 98 %
[14] = LNP, pro-drug concentration 99 %
[15] = all LNP formulations at 0 to 99 mol % pro-drug concentration

CCCCCC[C@H](C/C=C\CCCCCCCCOC(=O)CCC(=O)OCC(=O)[C@@]1(O)[C@H](C)C[C@H]2[C@@H]3CCC4=CC(=O)C=C[C@]4(C)[C@@]3(F)[C@@H](O)C[C@@]21C)OC(=O)CCCCC [INT-D034, 2-((8S,9R,10S,11S,13S,14S,16R,17R)-9-Fluoro-11,17-dihydroxy-10,13,16-trimethyl-3-oxo-6,7,8,9,10,11,12,13,14,15,16,17-dodecahydro-3H-cyclopenta[a]57ctadic57rene-17-yl)-2-oxoethyl ((R,Z)-12-(hexanoyloxy)57ctadic-9-en-1-yl) succinate]
levels of pro-inflammatory cytokines (IL1β, TNFα, IL-6) (J774.2): reduced levels of pro-inflammatory cytokines in a dose-dependent manner | levels of pro-inflammatory cytokines (IL1β, TNFα, IL-6) (Raw264.7): reduced levels of pro-inflammatory cytokines in a dose-dependent manner | Particle Diameter (nm) [1, 3]: 72 nm | Polydispersity index (PDI) [1, 3]: 0.02 | PdI [1, 4]: 0.08 | Size of LNP [1, 4]: 70 | PdI [1, 5]: 0.064 | Size (nm) [1, 5]: 48 nm | PdI [1, 6]: 0.068 | Size (nm) [1, 6]: 45 nm | PdI [1, 7]: 0.082 | Size (nm) [1, 7]: 43 nm | PdI [1, 8]: 0.100 | Size (nm) [1, 8]: 41 nm | PdI [1, 9]: 0.085 | Size (nm) [1, 9]: 32 nm | PdI [1, 10]: 0.022 | Size (nm) [1, 10]: 48 nm | PdI [1, 11]: 0.025 | Size (nm) [1, 11]: 87 nm | PdI [1, 12]: 0.082 | Size (nm) [1, 12]: 29 nm | PdI [1, 13]: 0.014 | Size (nm) [1, 13]: 52 nm | PdI [1, 14]: 0.011 | Size (nm) [1, 14]: 86 nm | Polydispersity index (PDI) [1, 15]: ≤ 0.1 | particle diameter [1, 15]: 29-87 nm | allogeneic T-cell proliferation (CD4+ T cells): able to suppress allogeneic T-cell proliferation | Encapsulation Efficiency (%) [2, 3]: 100% | % Entrapment [2, 4]: 99% | encapsulation efficiencies [2, 15]: high
